Literature values as cited in patent US6531162B1, “Adrenergically-mediated weight loss product” (priority 2002, dated 2003).
“Also recorded” adds a separate entry of the source.

Columns and labels:
[1] = system: fat cells
[2] = target: T1, beta-3 receptors (Homo sapiens, UniProt P13945); conditions: using beta blocking agents
[3] = target: T1, beta-3 receptors; conditions: in-vitro studies
[4] = single doses as high as 21.6 mg or daily cumulative doses as high as 43.2 mg
[5] = system: humans; conditions: after oral dosing
[6] = green tea versus equivalent dose (50 mg) of caffeine
[7] = system: COMT enzyme; conditions: in-vitro

T1 sequence (P13945 whole entry): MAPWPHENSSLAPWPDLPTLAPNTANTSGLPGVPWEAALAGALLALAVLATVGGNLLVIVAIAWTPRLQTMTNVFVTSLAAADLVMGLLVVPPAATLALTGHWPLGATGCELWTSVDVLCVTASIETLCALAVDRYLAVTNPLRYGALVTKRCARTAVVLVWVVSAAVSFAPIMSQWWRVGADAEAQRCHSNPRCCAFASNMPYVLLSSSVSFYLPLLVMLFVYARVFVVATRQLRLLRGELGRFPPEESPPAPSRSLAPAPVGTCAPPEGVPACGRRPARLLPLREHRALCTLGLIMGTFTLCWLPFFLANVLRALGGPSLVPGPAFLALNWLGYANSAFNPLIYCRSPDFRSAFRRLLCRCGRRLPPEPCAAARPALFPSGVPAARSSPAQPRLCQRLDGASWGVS

Structure (SMILES): COc1c(O)cc2c(c1O)[C@@H]1O[C@H](CO)[C@@H](O)[C@H](O)[C@H]1OC2=O [Bergenin]
- effect on lipogenic actions of insulin [1]: oppose the lipogenic (fat building) actions of insulin
- direct stimulation of lipolysis / adrenergic activity ([1]; in-vitro, compound alone): does not directly stimulate lipolysis; also recorded: no direct adrenergic activity
- enhancement of lipolysis induced by norepinephrine ([1]; in-vitro, with norepinephrine): markedly enhances lipolysis; also recorded: increase the lipolytic activity of norepinephrine

Structure (SMILES): CN[C@@H](C)[C@H](O)c1ccccc1 [ephedrine]
- share of ephedrine-induced thermogenesis accounted for by beta-3 agonist activity [2]: at least 40%

Structure (SMILES): NCC(O)c1ccc(O)cc1 (stereo not shown) [Octopamine]
- beta-3 agonist activity and selectivity [3]: potent selective beta-3 agonist; also recorded: selective for this receptor

Structure (SMILES): COC(=O)[C@@H]1[C@H]2C[C@H]3c4[nH]c5ccccc5c4CCN3C[C@@H]2CC[C@@H]1O [Yohimbine]
- impact on blood pressure or heart rate [4]: no significant impact
- tolerability [4]: well tolerated
- lipolysis in humans [5]: capable of increasing lipolysis

Structure (SMILES): Cn1c(=O)c2c(ncn2C)n(C)c1=O [caffeine]
- 24 hour energy expenditure [6]: no noticeable effect

Structure (SMILES): O=C(O[C@@H]1Cc2c(O)cc(O)cc2O[C@@H]1c1cc(O)c(O)c(O)c1)c1cc(O)c(O)c(O)c1 [EGCG]
- inhibition of the COMT enzyme [7]: inhibit the COMT enzyme
